The structures appear in SMILES notation. In brackets after ≈: the same amount, converted by molar mass. Where only a bound is given, the exact number is not on record here.

Assay [1] has as its system LS174T. Put plainly: Compound was evaluated for in vitro cytotoxicity after 6 hour, against CEA-bearing LS174T human colon carcinoma cells, in absence of beta-L-CEM 231 conjugate. It counts as functional, cell-based.
For assay [2], the system named is LS174T. Put plainly: Compound was evaluated for in vitro cytotoxicity after 48 hour, against CEA-bearing LS174T human colon carcinoma cells, in absence of beta-L-CEM 231 conjugate. It counts as functional, cell-based.

The IC50 is the concentration that inhibits the measured activity by half. Compound `CC[C@]1(O)C[C@@H]2CN(CCc3c([nH]c4ccccc34)[C@@](C(=O)OC)(c3cc4c(cc3OC)N(C)C3[C@]45CCN4CC=C[C@@](CC)([C@@H](O)[C@]3(O)C(=O)NCCSCC3=C(C(=O)O)N6C(=O)[C@@H](NC(=O)Cc7cccs7)[C@H]6SC3)[C@H]45)C2)C1` (single isomer, unassigned; (+)) displayed an IC50 in the assay on LS174T [1] (ls174t) of 0.26 µg/mL (≈ 0.226 µM).

`CC[C@]1(O)C[C@@H]2CN(CCc3c([nH]c4ccccc34)[C@@](C(=O)OC)(c3cc4c(cc3OC)N(C)C3[C@]45CCN4CC=C[C@@](CC)([C@@H](O)[C@]3(O)C(=O)NCCS)[C@H]45)C2)C1` (stereo not given in full): the IC50 is 0.26 µg/mL (≈ 0.319 µM) in the assay with LS174T [1] (Homo sapiens, LS174T, 6 h, read-out: IC50) and less than 0.001 µg/mL in the assay on LS174T [2].

In the case of `CC[C@]1(O)C[C@@H]2CN(CCc3c([nH]c4ccccc34)[C@@](C(=O)OC)(c3cc4c(cc3OC)N(C)C3[C@]45CCN4CC=C[C@@](CC)([C@@H](O)[C@]3(O)C(=O)NCCSCC3=C(C(=O)O)N6C(=O)[C@@H](NC(=O)Cc7cccs7)[C@H]6SC3)[C@H]45)C2)C1` (single isomer, unassigned; (-)), the IC50 with LS174T [1] (ls174t) is 2.15 µg/mL (≈ 1.87 µM); with LS174T [2], less than 0.001 µg/mL.

The values are drawn from ChEMBL document CHEMBL1125938, “A novel targeted delivery system utilizing a cephalosporin-oncolytic prodrug activated by an antibody -lactamase conjugate for the treatment of cancer” (Bioorg Med Chem Lett, 1991).
